Drawing on ChEMBL document CHEMBL2331514, “Structure-based design and synthesis of novel pseudosaccharine derivatives as antiproliferative agents and kinase inhibitors” (Eur J Med Chem, 2013), this text covers logP and inhibition of growth for six compounds.

A short description of data set [1]: Partition coefficient, log P of the compound. Type of data set: physicochemical. The conditions noted are these: octanol/water.
The next data set concerns MDA-MB-468. Description: Cytotoxicity against human MDA-MB-468 cells assessed as growth inhibition at 10 uM after 48 hrs by SRB assay. Type of data set: functional. To be noted: MDA-MB-468, 48 h, read-out: GI.
The subject of another data set is BT-549. The experiment in a line: Cytotoxicity against human BT549 cells assessed as growth inhibition at 10 uM after 48 hrs by SRB assay. Type of data set: functional. The conditions noted are these: BT-549, 48 h, read-out: GI.
The subject of a further data set is MCF7. The experiment in a line: Cytotoxicity against human MCF7 cells assessed as growth inhibition at 10 uM after 48 hrs by SRB assay. Type of data set: functional. The conditions noted are these: MCF7, 48 h, read-out: GI.
A further data set relates to UO-31. Description: Cytotoxicity against human UO31 cells assessed as growth inhibition at 10 uM after 48 hrs by SRB assay. Type of data set: functional. To be noted: UO-31, 48 h, read-out: GI.
Another data set has as its system RXF 393. The experiment in a line: Cytotoxicity against human RXF393 cells assessed as growth inhibition at 10 uM after 48 hrs by SRB assay. Type of data set: functional. To be noted: RXF 393, 48 h, read-out: GI.
Another data set relates to CAKI-1. Description: Cytotoxicity against human Caki1 cells assessed as growth inhibition at 10 uM after 48 hrs by SRB assay. To be noted: CAKI-1, 48 h, read-out: GI. Type of data set: functional.
In the next data set the test system is 786-0. Description: Cytotoxicity against human 786-0 cells assessed as growth inhibition at 10 uM after 48 hrs by SRB assay. Type of data set: functional. To be noted: 786-0, 48 h, read-out: GI.
In a further data set the test system is SK-OV-3. The experiment in a line: Cytotoxicity against human SKOV3 cells assessed as growth inhibition at 10 uM after 48 hrs by SRB assay. The conditions noted are these: SK-OV-3, 48 h, read-out: GI. Type of data set: functional.
For a further data set, the system named is OVCAR-8. Description: Cytotoxicity against human OVCAR8 cells assessed as growth inhibition at 10 uM after 48 hrs by SRB assay. Type of data set: functional. To be noted: OVCAR-8, 48 h, read-out: GI.
Another data set has as its system OVCAR-5. The experiment in a line: Cytotoxicity against human OVCAR5 cells assessed as growth inhibition at 10 uM after 48 hrs by SRB assay. The conditions noted are these: OVCAR-5, 48 h, read-out: GI. Type of data set: functional.
In a further data set the test system is OVCAR-3. The experiment in a line: Cytotoxicity against human OVCAR3 cells assessed as growth inhibition at 10 uM after 48 hrs by SRB assay. Type of data set: functional. The conditions noted are these: OVCAR-3, 48 h, read-out: GI.
The test system of the next data set is IGROV-1. Description: Cytotoxicity against human IGROV1 cells assessed as growth inhibition at 10 uM after 48 hrs by SRB assay. Format: functional. The conditions noted are these: IGROV-1, 48 h, read-out: GI.
The subject of a further data set is SF-539. Description: Cytotoxicity against human SF539 cells assessed as growth inhibition at 10 uM after 48 hrs by SRB assay. Format: functional. The conditions noted are these: SF-539, 48 h, read-out: GI.
The subject of another data set is HT-29. The experiment in a line: Cytotoxicity against human HT-29 cells assessed as growth inhibition at 10 uM after 48 hrs by SRB assay. Type of data set: functional. To be noted: HT-29, 48 h, read-out: GI.
The next data set deals with HCC 2998. Description: Cytotoxicity against human HCC2998 cells assessed as growth inhibition at 10 uM after 48 hrs by SRB assay. Type of data set: functional. The conditions noted are these: HCC 2998, 48 h, read-out: GI.
A further data set concerns NCI-H226. The experiment in a line: Cytotoxicity against human NCI-H226 cells assessed as growth inhibition at 10 uM after 48 hrs by SRB assay. Type of data set: functional. The conditions noted are these: NCI-H226, 48 h, read-out: GI.
Data set [2] is described as follows: Cytotoxicity against human EKVX cells assessed as growth inhibition at 10 uM after 48 hrs by SRB assay. Type of data set: functional. To be noted: read-out: GI.
The test system of the next data set is A549. The experiment in a line: Cytotoxicity against human A549/ATCC cells assessed as growth inhibition at 10 uM after 48 hrs by SRB assay. To be noted: A549, 48 h, read-out: GI. Format: functional.
The next data set has as its system MOLT-4. The experiment in a line: Cytotoxicity against human MOLT4 cells assessed as growth inhibition at 10 uM after 48 hrs by SRB assay. Format: functional. To be noted: MOLT-4, 48 h, read-out: GI.
In the next data set the test system is CCRF-CEM. Description: Cytotoxicity against human CCRF-CEM cells assessed as growth inhibition at 10 uM after 48 hrs by SRB assay. Format: functional. The conditions noted are these: read-out: GI.

`COc1ccc(NC(=O)Nc2ccc(NC3=NS(=O)(=O)c4ccccc43)cc2)cc1`: in data set [1], the logP turned out to be 2.99. In addition, the inhibition of growth at 10 µM in the data set on MDA-MB-468 was -7%; with BT-549, 15%; in the data set on MCF7, 13%; in the data set with UO-31, 1%; in the data set on RXF 393, -2%; with CAKI-1 it was -1%. Besides, the inhibition of growth at 10 µM in the data set with 786-0 is 19%; in the data set with SK-OV-3 it was -20%; in the data set with OVCAR-8, -11%; in the data set on OVCAR-5, -10%; in the data set on OVCAR-3, -2%; in the data set with IGROV-1 it was -6%. Moreover, the inhibition of growth at 10 µM was 14% in the data set on SF-539; 17% with HT-29; -3% in the data set on HCC 2998; -3% with NCI-H226; 2% in [2]; -10% in the data set with A549. For the same compound, the results for the inhibition of growth at 10 µM in the data set on MOLT-4 and in the data set with CCRF-CEM were 11% and 14%, respectively.

In [1], `O=C(Nc1ccc(NC2=NS(=O)(=O)c3ccccc32)cc1)Nc1cccc(Br)c1` had a logP of 2.24. The inhibition of growth at 10 µM in the data set with MDA-MB-468 was found to be 60%; with BT-549, 23%; in the data set with MCF7, 44%; in the data set with UO-31 it was 13%; in the data set with RXF 393 it was 35%; with CAKI-1, 5%. The inhibition of growth at 10 µM with 786-0 was 27%; in the data set on SK-OV-3, 4%; in the data set on OVCAR-8, 17%; in the data set with OVCAR-5, 13%; in the data set on OVCAR-3 it was 22%; with IGROV-1, -10%. Also, the inhibition of growth at 10 µM is 36% in the data set on SF-539; 11% in the data set on HT-29; 5% with HCC 2998; 20% in the data set on NCI-H226; -4% in [2]; 4% in the data set on A549. In addition, the figures for the inhibition of growth at 10 µM in the data set on MOLT-4 and in the data set with CCRF-CEM were 37% and 39%, respectively.

In the case of `O=C(Nc1ccc(OC2=NS(=O)(=O)c3ccccc32)cc1)Nc1ccccc1Cl`, the logP in data set [1] stood at 3.55. The inhibition of growth at 10 µM in the data set on MDA-MB-468 was found to be 8%; in the data set with BT-549, 22%; with MCF7, 23%; in the data set with UO-31, 33%; with RXF 393, 10%; with CAKI-1, 6%. The inhibition of growth at 10 µM in the data set on 786-0 was 11%; in the data set on SK-OV-3 it was -7%; in the data set with OVCAR-8, 1%; with OVCAR-5, 3%; with OVCAR-3, 3%; with IGROV-1, 0%. Moreover, the inhibition of growth at 10 µM with SF-539 is 6%; in the data set on HT-29, 4%; with HCC 2998, -5%; with NCI-H226, 25%; in [2] it was -3%; with A549, 7%. The inhibition of growth at 10 µM in the data set with MOLT-4 is 24%; with CCRF-CEM, 57%.

Take `Cc1ccc(NC2=NS(=O)(=O)c3ccc(NC(=O)CCC(=O)O)cc32)cc1`: the logP in [1] was 1. Further, the inhibition of growth at 10 µM with MDA-MB-468 is -6%; in the data set on BT-549, -8%; in the data set on MCF7 it was 8%; in the data set on UO-31 it was 12%; in the data set with RXF 393 it was -4%; with CAKI-1, 1%. The inhibition of growth at 10 µM was 2% with 786-0; -11% with SK-OV-3; -10% with OVCAR-8; 1% in the data set on OVCAR-5; -16% with OVCAR-3; -12% with IGROV-1. The inhibition of growth at 10 µM is 1% in the data set with SF-539; -3% in the data set with HT-29; -4% in the data set with HCC 2998; 13% in the data set on NCI-H226; -4% in data set [2]; -7% with A549. In addition, the results for the inhibition of growth at 10 µM with MOLT-4 and with CCRF-CEM were -3% and 2%, respectively.

With `O=C(Nc1ccccc1)Nc1ccc(OC2=NS(=O)(=O)c3ccccc32)cc1`, the logP in [1] is 2.89. Besides, the inhibition of growth at 10 µM in the data set with MDA-MB-468 turned out to be 20%; in the data set on BT-549, 12%; with MCF7, 17%; with UO-31 it was 13%; in the data set on RXF 393, 5%; in the data set with CAKI-1, 25%. The inhibition of growth at 10 µM in the data set on 786-0 is 26%; in the data set on SK-OV-3, -13%; in the data set with OVCAR-8, 5%; in the data set on OVCAR-5, 13%; with OVCAR-3, -9%; with IGROV-1, -12%. Moreover, the inhibition of growth at 10 µM with SF-539 is 21%; with HT-29, 52%; in the data set with HCC 2998, 20%; in the data set with NCI-H226, 20%; in data set [2], -3%; in the data set with A549 it was 22%. Also, the inhibition of growth at 10 µM in the data set on MOLT-4 stood at 32%; in the data set with CCRF-CEM it was 41%.

Take `O=C(Nc1ccccc1)Nc1ccc(NC2=NS(=O)(=O)c3ccccc32)cc1`: the logP in [1] came out at 2.23. Moreover, the inhibition of growth at 10 µM in the data set with MDA-MB-468 is -11%; in the data set with BT-549, 3%; in the data set with MCF7 it was 10%; in the data set on UO-31, 7%; in the data set with RXF 393, -6%; in the data set with CAKI-1 it was 2%. In addition, the inhibition of growth at 10 µM with 786-0 was 3%; with SK-OV-3, -7%; in the data set on OVCAR-8 it was -5%; in the data set with OVCAR-5, -2%; in the data set with OVCAR-3, -11%; with IGROV-1, -14%. Besides, the inhibition of growth at 10 µM with SF-539 was 5%; in the data set with HT-29 it was 1%; in the data set with HCC 2998, -7%; in the data set with NCI-H226, 10%; in [2], 0%; in the data set on A549 it was 3%. Besides, the results for the inhibition of growth at 10 µM in the data set with MOLT-4 and in the data set with CCRF-CEM were 4% and 5%, respectively.
